Source: patent EP0256125A1, “MEANS FOR PREVENTING MICROBIOLOGICAL OVERGROWING OF HARD SURFACE” (priority 1985, dated 1987)

Key:
[1] = Solubility in solvents (qualitative); settings: for Löslichkeit im Alkohol: Alkohol (Ethylalkohol)
[2] = Storage stability (qualitative); type: physicochemical; settings: result in words
[3] = tested on: p.Pseudomonas; experiment: Bactericidal activity, growth on agar medium; type: cell-based; settings: 37°C, 5 Tage
Protocol: (§1) Die bakterizide Aktivität des Kalium N-(vinyloxyethyl)-dithiocarbamats gegenüber den Bakterien, die von der Oberfläche von Wänden und Decken der Produktionsräume von Brauereien und Fabriken zur Herstellunq von alkoholfreien Getränken ausgeschieden wurden und die zu p.p.Bacillus, Micrococcus, Pseudomonas, Escherichiae gehören, wurde geprüft.
(§2) Es wurden wäßrige Lösungen des genannten Stoffes verschiedener Konzentration hergestellt, die so berechnet wurde, daß bei Einführung von 1 ml der Lösung in 25 ml geschmolzenen agarisierten Nährboden (45-50°C) die Konzentration des Stoffes im Nährboden von 0,003 bis 0,5% betrug. In 18 bis 24 Stunden wurde auf die Oberfläche des Nährbodens 0,1 ml der wäßrigen Suspension der eintägigen reinen Bakterienkulturen aufgetragen, die am Fleisch-Pepton-Agar gezüchtet wurden. Die Suspension wurde gleichmäßig verteilt. In Kontrollschalen wurden 0,1 ml Wasser auf der Oberfläche des Närhbodens verteilt.
(§3) Die Inkubation führte man bei einer Temperatur von 37°C während 5 Tage durch.
(§4) Die effektive Wirkung des Stoffes wurde nach dem Auftreten des Bakterienwachstums an der Oberfläche des Nährbodens bewertet.

[4] = tested on: p.Micrococcus; experiment: Bactericidal activity, growth on agar medium; type: cell-based; settings: 37°C, 5 Tage
Protocol: as §1, §2, §3, §4

[5] = tested on: p. Escherichiae; experiment: Bactericidal activity, growth on agar medium; type: cell-based; settings: 37°C, 5 Tage
Protocol: as §1, §2, §3, §4

[6] = tested on: p.Bacillus; experiment: Bactericidal activity, growth on agar medium; type: cell-based; settings: 37°C, 5 Tage
Protocol: as §1, §2, §3, §4

[7] = tested on: Schimmelpilzen, die die Bewachsung von Oberflächen hervorrufen; experiment: Fungicidal activity, summary over all tested fungi; type: cell-based; settings: day 5
From the text: (§5) Man prüfte die funguzide Aktivität von Zink-bis-(N-vi- nyloxyethyl)dithiocarbamat gegenüber den reinen Pilzkulturen: Gladosporium resinae, Cladosporium cladosporioides, Acremonium corvum, Acremonium charticola, Penicillium charlesii Smith, Walrotiela subiculesa, Geotrichum candidum Link, Oidium, Penicillium crysogenum. Die genannten Pilze wurden von den Oberflächen der Wände und Decken von Bierbrauereien und Werken für die Herstellung von alkoholfreien Getränken ausgeschieden.
Es wurden Lösungen des Zink-bis-(N-vinyloxyethyl)di- thiocarbamats im Azeton verschiedener Konzentration hergestellt, die so berechnet wurde, daß bei der Einführung vor 1 ml Lösung in 10 ml des geschmolzenen Würzeagars (45-50°C) die Konzentration des genannten Stoffes im Medium von 0,0015 bis 0,012% betrug. In eine der Petri-Schalen wurde Nährboden mit 1 ml Azeton (Kontrolle) gegossen.
(§6) In 18 bis 20 Stunden nach dem Vergießen des Nährbodens in die Petri-Schalen führte man die Inokulation der reinen Pilzkultur durch, die vorher an einem Schräg-Würzeagar während 15 Tage gezüchtet wurden. Die Inkubation führte man bei einer Temperatur von 25 bis 27°C während 5 Tage durch. Danach wurde der Durchmesser der Pilzkolonien gemessen und der Prozentsatz der Hemmung des Wachstums des Myzeliums (S) nach der Abbott -Formel gezählt: [formula] worin dc Durchmesser der Pilzkolonien in Kontrolle ist, de =Durchmesser der Pilzkolonien in einer Schale mit dem Nährboden ist, der Zink-bis-(N-vinyloxyethyl)dithiocarbamat enthält.

[8] = tested on: Geotrichum candidum Link; experiment: Fungicidal activity, inhibition of mycelium growth on wort agar; type: cell-based
From the text: as §5
(§7) […] In eine der Petri-Schalen wurde Nährboden mit 1 ml Azeton (Kontrolle) gegossen.
as §6

[9] = tested on: Penicillium chrysogenum; experiment: as above; type: cell-based
From the text: as §5, §7, §6

[10] = tested on: Cladosporium resinae; experiment: as above; type: cell-based
From the text: as §5, §7, §6

[11] = tested on: Walrotiela subiculesa; experiment: as above; type: cell-based
From the text: as §5, §7, §6

[12] = tested on: Penicillium charlesii Smith; experiment: as above; type: cell-based
From the text: as §5, §7, §6

[13] = tested on: Acremonium charticola; experiment: as above; type: cell-based
From the text: as §5, §7, §6

[14] = tested on: Acremonium corvum; experiment: as above; type: cell-based
From the text: as §5, §7, §6

[15] = tested on: Cladosporium cladosporioides; experiment: as above; type: cell-based
From the text: as §5, §7, §6

[16] = tested on: weißen Mäusen; experiment: Acute toxicity in white mice; settings: perorale Einführung bei weißen Mäusen
[17] = tested on: Oidium; experiment: Fungicidal activity, inhibition of mycelium growth on wort agar; type: cell-based
From the text: as §5, §7, §6

[18] = Konzentration des Stoffes 0,01 %
[19] = Konzentration des Stoffes 0,1 % (0,10)
[20] = Konzentration des Stoffes 0,02 %
[21] = Konzentration des Stoffes 0,05 %
[22] = Konzentration des Stoffes 0,005 %
[23] = Konzentration des Stoffes 0,0015 %
[24] = Konzentration des Stoffes 0,003 %
[25] = Konzentration des Stoffes 0,006 %
[26] = Konzentration des Stoffes 0,012 %

Kupfer bis-(N-vinyloxyethyl) dithiocarbamat
Löslichkeit im Alkohol [1]: bearenzt löslich | Löslichkeit im Azeton [1]: bearenzt löslich | Löslichkeit im Diethylether ([1]; Diethylether): nicht löslich | Löslichkeit im Dimethylsulfoxid [1]: gut löslich | Löslichkeit in Wasser [1]: bearenzt löslich | Lagerbeständigkeit [2]: lagerbeständig | Konzentration der Salze der N-(vinyloxyethyl)dithiocarbaminsäure (100%), die das Wachstum der Bakterien am 5. Tag des Wachstums hemmen, p.Pseudomonas [3]: 0,15% | Konzentration der Salze der N-(vinyloxyethyl)dithiocarbaminsäure (100%), die das Wachstum der Bakterien am 5. Tag des Wachstums hemmen, p.Micrococcus [4]: 0,15% | Konzentration der Salze der N-(vinyloxyethyl)dithiocarbaminsäure (100%), die das Wachstum der Bakterien am 5. Tag des Wachstums hemmen, p. Escherichiae [5]: 0,15% | Konzentration der Salze der N-(vinyloxyethyl)dithiocarbaminsäure (100%), die das Wachstum der Bakterien am 5. Tag des Wachstums hemmen, p.Bacillus [6]: 0,15% | Konzentration, bei der die Entwicklung aller untersuchten Pilze vollständig gehemmt wurde [7]: 0,1% | Hemmung des Myzeliums am 5. Tag des Wachstums, Geotrichum candidum Link [8, 18]: 100% | Hemmung des Myzeliums am 5. Tag des Wachstums, Geotrichum candidum Link [8, 19]: 100% | Hemmung des Myzeliums am 5. Tag des Wachstums, Geotrichum candidum Link [8, 20]: 100% | Hemmung des Myzeliums am 5. Tag des Wachstums, Geotrichum candidum Link [8, 21]: 100% | Hemmung des Myzeliums am 5. Tag des Wachstums, Geotrichum candidum Link [8, 22]: 100% | Hemmung des Myzeliums am 5. Tag des Wachstums, Penicillium chrysogenum [9, 18]: 25% | Hemmung des Myzeliums am 5. Tag des Wachstums, Penicillium chrysogenum [9, 19]: 100% | Hemmung des Myzeliums am 5. Tag des Wachstums, Penicillium chrysogenum [9, 20]: 36% | Hemmung des Myzeliums am 5. Tag des Wachstums, Penicillium chrysogenum [9, 21]: 70% | Hemmung des Myzeliums am 5. Tag des Wachstums, Penicillium chrysogenum [9, 22]: 10% | Hemmung des Myzeliums am 5. Tag des Wachstums, Cladosporium resinae [10, 18]: 34% | Hemmung des Myzeliums am 5. Tag des Wachstums, Cladosporium resinae [10, 19]: 100% | Hemmung des Myzeliums am 5. Tag des Wachstums, Cladosporium resinae [10, 20]: 80% | Hemmung des Myzeliums am 5. Tag des Wachstums, Cladosporium resinae [10, 21]: 90% | Hemmung des Myzeliums am 5. Tag des Wachstums, Walrotiela subiculesa [11, 18]: 0% | Hemmung des Myzeliums am 5. Tag des Wachstums, Walrotiela subiculesa [11, 19]: 100% | Hemmung des Myzeliums am 5. Tag des Wachstums, Walrotiela subiculesa [11, 20]: 10% | Hemmung des Myzeliums am 5. Tag des Wachstums, Walrotiela subiculesa [11, 21]: 37% | Hemmung des Myzeliums am 5. Tag des Wachstums, Walrotiela subiculesa [11, 22]: 0% | Hemmung des Myzeliums am 5. Tag des Wachstums, Penicillium charlesii Smith [12, 18]: 30% | Hemmung des Myzeliums am 5. Tag des Wachstums, Penicillium charlesii Smith [12, 19]: 100% | Hemmung des Myzeliums am 5. Tag des Wachstums, Penicillium charlesii Smith [12, 20]: 80% | Hemmung des Myzeliums am 5. Tag des Wachstums, Penicillium charlesii Smith [12, 21]: 100% | Hemmung des Myzeliums am 5. Tag des Wachstums, Penicillium charlesii Smith [12, 22]: 15% | Hemmung des Myzeliums am 5. Tag des Wachstums, Acremonium charticola [13, 18]: 96% | Hemmung des Myzeliums am 5. Tag des Wachstums, Acremonium charticola [13, 19]: 100% | Hemmung des Myzeliums am 5. Tag des Wachstums, Acremonium charticola [13, 20]: 100% | Hemmung des Myzeliums am 5. Tag des Wachstums, Acremonium charticola [13, 21]: 100% | Hemmung des Myzeliums am 5. Tag des Wachstums, Acremonium charticola [13, 22]: 70% | Hemmung des Myzeliums am 5. Tag des Wachstums, Acremonium corvum [14, 18]: 100% | Hemmung des Myzeliums am 5. Tag des Wachstums, Acremonium corvum [14, 19]: 100% | Hemmung des Myzeliums am 5. Tag des Wachstums, Acremonium corvum [14, 20]: 100% | Hemmung des Myzeliums am 5. Tag des Wachstums, Acremonium corvum [14, 21]: 100% | Hemmung des Myzeliums am 5. Tag des Wachstums, Acremonium corvum [14, 22]: 100% | Hemmung des Myzeliums am 5. Tag des Wachstums, Cladosporium cladosporioides [15, 18]: 36% | Hemmung des Myzeliums am 5. Tag des Wachstums, Cladosporium cladosporioides [15, 19]: 100% | Hemmung des Myzeliums am 5. Tag des Wachstums, Cladosporium cladosporioides [15, 20]: 65% | Hemmung des Myzeliums am 5. Tag des Wachstums, Cladosporium cladosporioides [15, 21]: 80% | Hemmung des Myzeliums am 5. Tag des Wachstums, Cladosporium cladosporioides [15, 22]: 15%

Zink-bis-(N-vinyloxyethyl)dithiocarbamat
Löslichkeit im Alkohol [1]: begrenzt | Löslichkeit im Azeton [1]: begrenzt | Löslichkeit im Dimethylsulfoxid [1]: gut | Löslichkeit in Wasser [1]: unlöslich | LD50 [16]: 1120 + 260 mg/kg | Konzentration der Salze der N-(vinyloxyethyl)dithiocarbaminsäure (100%), die das Wachstum der Bakterien am 5. Tag des Wachstums hemmen, p.Pseudomonas [3]: 0,05% | Konzentration der Salze der N-(vinyloxyethyl)dithiocarbaminsäure (100%), die das Wachstum der Bakterien am 5. Tag des Wachstums hemmen, p.Micrococcus [4]: 0,05% | Konzentration der Salze der N-(vinyloxyethyl)dithiocarbaminsäure (100%), die das Wachstum der Bakterien am 5. Tag des Wachstums hemmen, p. Escherichiae [5]: 0,05% | Konzentration der Salze der N-(vinyloxyethyl)dithiocarbaminsäure (100%), die das Wachstum der Bakterien am 5. Tag des Wachstums hemmen, p.Bacillus [6]: 0,05% | Konzentration, bei der die Entwicklung aller untersuchten Pilze vollständig gehemmt wurde [7]: 0,012% | Hemmung des Myzeliums am 5. Tag des Wachstums, Geotrichum candidum Link [8, 23]: 29% | Hemmung des Myzeliums am 5. Tag des Wachstums, Geotrichum candidum Link [8, 24]: 100% | Hemmung des Myzeliums am 5. Tag des Wachstums, Geotrichum candidum Link [8, 25]: 100% | Hemmung des Myzeliums am 5. Tag des Wachstums, Geotrichum candidum Link [8, 26]: 100% | Hemmung des Myzeliums am 5. Tag des Wachstums, Penicillium chrysogenum [9, 23]: 10% | Hemmung des Myzeliums am 5. Tag des Wachstums, Penicillium chrysogenum [9, 24]: 40% | Hemmung des Myzeliums am 5. Tag des Wachstums, Penicillium chrysogenum [9, 25]: 80% | Hemmung des Myzeliums am 5. Tag des Wachstums, Penicillium chrysogenum [9, 26]: 100% | Hemmung des Myzeliums am 5. Tag des Wachstums, Oidium [17, 23]: 80% | Hemmung des Myzeliums am 5. Tag des Wachstums, Oidium [17, 24]: 100% | Hemmung des Myzeliums am 5. Tag des Wachstums, Oidium [17, 25]: 100% | Hemmung des Myzeliums am 5. Tag des Wachstums, Oidium [17, 26]: 100% | Hemmung des Myzeliums am 5. Tag des Wachstums, Cladosporium resinae [10, 23]: 37,5% | Hemmung des Myzeliums am 5. Tag des Wachstums, Cladosporium resinae [10, 24]: 100% | Hemmung des Myzeliums am 5. Tag des Wachstums, Cladosporium resinae [10, 25]: 100% | Hemmung des Myzeliums am 5. Tag des Wachstums, Cladosporium resinae [10, 26]: 100% | Hemmung des Myzeliums am 5. Tag des Wachstums, Walrotiela subiculesa [11, 23]: 52% | Hemmung des Myzeliums am 5. Tag des Wachstums, Walrotiela subiculesa [11, 24]: 100% | Hemmung des Myzeliums am 5. Tag des Wachstums, Walrotiela subiculesa [11, 25]: 100% | Hemmung des Myzeliums am 5. Tag des Wachstums, Walrotiela subiculesa [11, 26]: 100% | Hemmung des Myzeliums am 5. Tag des Wachstums, Penicillium charlesii Smith [12, 23]: 90% | Hemmung des Myzeliums am 5. Tag des Wachstums, Penicillium charlesii Smith [12, 24]: 100% | Hemmung des Myzeliums am 5. Tag des Wachstums, Penicillium charlesii Smith [12, 25]: 100% | Hemmung des Myzeliums am 5. Tag des Wachstums, Penicillium charlesii Smith [12, 26]: 100% | Hemmung des Myzeliums am 5. Tag des Wachstums, Acremonium charticola [13, 23]: 50% | Hemmung des Myzeliums am 5. Tag des Wachstums, Acremonium charticola [13, 24]: 100% | Hemmung des Myzeliums am 5. Tag des Wachstums, Acremonium charticola [13, 25]: 100% | Hemmung des Myzeliums am 5. Tag des Wachstums, Acremonium charticola [13, 26]: 100% | Hemmung des Myzeliums am 5. Tag des Wachstums, Acremonium corvum [14, 23]: 40% | Hemmung des Myzeliums am 5. Tag des Wachstums, Acremonium corvum [14, 24]: 100% | Hemmung des Myzeliums am 5. Tag des Wachstums, Acremonium corvum [14, 25]: 100% | Hemmung des Myzeliums am 5. Tag des Wachstums, Acremonium corvum [14, 26]: 100% | Hemmung des Myzeliums am 5. Tag des Wachstums, Cladosporium cladosporioides [15, 23]: 100% | Hemmung des Myzeliums am 5. Tag des Wachstums, Cladosporium cladosporioides [15, 24]: 100% | Hemmung des Myzeliums am 5. Tag des Wachstums, Cladosporium cladosporioides [15, 25]: 100% | Hemmung des Myzeliums am 5. Tag des Wachstums, Cladosporium cladosporioides [15, 26]: 100%
